Results: BigSolDB 2.1

CC(C)(C)OC(=O)N1CCC[C@H]1C(=O)O
solubility (mole fraction)
Details	283.15 K	288.15 K	293.15 K	298.15 K	303.15 K	313.15 K	323.15 K
in 2-butanone	0.0371	–	0.0532	–	0.0687	0.0925	0.125
in acetone	0.0457	–	0.06	–	0.075	0.0965	0.129
in acetonitrile	0.0113	–	0.0166	–	0.0247	0.0379	0.054
in dichloromethane	0.0896	0.098	0.107	0.116	0.125	–	–
in ethanol	0.0968	–	0.111	–	0.133	0.172	0.215
in ethyl acetate	0.0217	–	0.0303	–	0.0392	0.0494	0.0606
in isobutanol	0.072	–	0.0942	–	0.12	0.143	0.166
in isopropanol	0.0971	–	0.114	–	0.134	0.168	0.208
in methanol	0.115	–	0.15	–	0.196	0.24	0.297
in methyl acetate	0.0252	–	0.0339	–	0.0436	0.055	0.0698
in n-butanol	0.0889	–	0.103	–	0.126	0.149	0.178
in n-propanol	0.0944	–	0.109	–	0.132	0.16	0.19
in sec-butanol	0.0968	–	0.127	–	0.157	0.193	0.232
in water	6.6e-05	–	0.000204	–	0.000593	0.000959	0.00144
